Measurements as given in US6316423A, “Method of treating ischemic, hypoxic and anoxic brain damage” (priority 1999, dated 2001).
Entries after “also recorded” stand apart in the source; their conditions may differ.

Key:
[1] = Open field locomotor activity in nonischemic gerbils; assay type: in vivo, gerbil; details: 0.1 mg/kg (100 μg/kg)
[2] = tested on: gerbils exposed to 10 minutes of brain ischemia; assay: Mortality after 10 min ischemia, preischemic ADAC; assay type: in vivo, gerbil; details: 0.1 mg/kg preischemic, entire monitoring period (14 days); control 60%
Experimental: Seven control animals out of 20 (35%) died during the initial 12 hour period following 10 minutes of ischemia. Three additional control gerbils died between day 1 and 3, and 2 additional animals died 5-8 hours following a water maze trial by day 14. Thus, the overall death rate of the control group was 60%. In contrast, in the ADAC-treated group only 2 animals out of 10 died (20%) during the entire monitoring period, one on day 3 and one on day 6.
(§1) Prior to subjecting the gerbils to 10 minutes of ischemia, the gerbils were randomly divided into the control and the drug testing groups. […] During post-ischemic recovery, animals were monitored each day for signs of functional damage (e.g., pareses) that might affect their subsequent water maze performance. Postischemic mortality was also monitored every day.

[3] = tested on: gerbils subjected to 10 minutes of ischemia; assay: Open field locomotor activity 7 days after ischemia; assay type: in vivo, gerbil; details: preischemic ADAC, 10 minute period, control 235±3 cm, P<0.001
Experimental: as §1
Since locomotor hyperactivation may result in a spurious improvement of performance in the water maze (von Lubitz et al., 1993, supra), open field activity of all gerbils was assessed 7 days after the occlusion (i.e., one day prior to the water maze experiments). During locomotor testing, horizontal displacement of each gerbil was monitored in 2 minute epochs for 10 minutes using a Digiscan activity monitor (available from Omnitech Electronics, Colombus, Ohio).

[4] = tested on: cortex, hippocampal CA1 sector, and striatum; assay: Nissl histology of neuronal loss, preischemic ADAC; assay type: in vivo, gerbil; details: two weeks after ischemia
Experimental: The gerbils of Example 3 were subjected to examination procedures subsequent to the water maze tests described in Example 3. One day after the last postischemic water maze trial, all animals were heavily anesthetized with Nembutal and perfused through the aorta with buffered (pH 7.4) formaldehyde. Frozen sections of the brains were made as described previously (Lin et al., supra). The sections were stained using the method of Nissl, and the extent of the neuronal loss was determined in the cortex, hippocampal CA1 sector, and striatum following the published protocol of von Lubitz et al. (von Lubitz, 1992, supra; von Lubitz, 1994, supra).

[5] = tested on: neurons of hippocampal CA1 region; assay: Neuronal survival 14 days after 10 minute ischemia, postischemic ADAC; assay type: in vivo, gerbil; details: control 25±3%
Experimental: At the end of the survival monitoring period (14 days), control and drug treated survivors were heavily anesthetized with Nembutal (60 mg/kg, intraperitoneally), and perfused with phosphate buffered (pH 7.4) 3.5% formaldehyde as described previously (Lin et al., Neurosci., 2, 289 (1990). The sections were stained with the method of Nissl, and the extent of the neuronal loss in the hippocampal region was investigated according to a standard procedure as disclosed in the art (von Lubitz et al., (1992) supra; 1994)supra.

[6] = tested on: microtubule associated protein 2 (MAP-2); assay: MAP-2 preservation in CA1 after 10 minute ischemia, postischemic ADAC; assay type: in vivo, gerbil; details: 100 μg/kg at 2, 6 or 12 h postischemia
Text: Animals were allowed to survive either 2 or 7 days. They were then perfused with a freshly made 3.5 solution of paraformaldehyde in phosphate buffered saline (pH 7.4). After removal, brains were cut at 40 μm, and the sections were stained immunohistochemically with a monoclonal MAP-2 antibody (Sigma) diluted 1:500-1000. Standard peroxidase anti-peroxidase procedure of ABC complex with Vector kit (Hsu et al., 1981) intensified with heavy metal (Adams, 1981) was used. For immunofluorescent studies, the sections were incubated at 4° C. with the primary antibody overnight. Following three 5-10 minute washes, the sections were exposed to the secondary antibodies, i.e., fluorescein isothiocyanate, rhodamine isothiocyanate, and Texas Red conjugated goat anti-mouse IgG. The secondary antibodies were diluted at 1:20-100 in 0.1M phosphate buffer. Qualitative morphological and immunostaining characteristics of the sections were studied using an epifluorescent microscope (Nikon Labophot) equipped with filters (Nikon B2 and Nikon G1B) appropriate for the detection of the secondary antibodies.
Quantitative analysis of MAP-2 presence in the dendritic fields of CA1 was made using a computer image analysis system (Biographics Inc., Winston-Salem, N.C.).

[7] = tested on: gerbils exposed to 10 minutes of ischemia; assay: Survival rate following 10 minutes of ischemia, postischemic ADAC; assay type: in vivo, gerbil
Experimental: In the three remaining treatment groups (i.e., 3, 6, and 12 hours) numerical improvement was apparent, but statistical significance of (P<0.05) was lost probably owing to the sample sizes. […] To prevent selection of overly robust animals into these groups, the data were not normalized to account for pre-treatment mortalities.

[8] = tested on: gerbils exposed to 10 minutes of brain ischemia; assay: Dose-response of preischemic ADAC on survival after 10 minutes of ischemia; assay type: in vivo, gerbil; details: 15 min preischemia, control 40%
Text: This higher selectivity results in lower quantities of drug administration required for maximum neuroprotection. Lower administered quantities in turn, result in attenuation or elimination of side-effects.

[9] = tested on: gerbils exposed to 10 minutes of brain ischemia; assay: Chronic ADAC treatment followed by 10 minutes of ischemia; assay type: in vivo, gerbil; details: 0.025, 0.050 or 0.075 mg for 60 days, one day rest
Experimental: The gerbils were then subjected to 10 minutes of brain ischemia and allowed to recover.

[10] = target: Rat A2 adenosine receptor; assay: Affinity for A2 adenosine receptor isolated from rats; assay type: binding; details: rat A2 adenosine receptors; read-out: Ki for Rat A2 Receptors (printed K1)
Text: Table 3 below indicates the structure and Ki values for these compounds. Thus, each of these compounds is expected to find utility in the context of the present invention. The five analogues indicated within Table 3 are given for the purposes of illustrating the nature of ADAC-analogues and is not meant to be comprehensive. Additionally, these compounds can be synthesized using a similar approach as the one employed for ADAC. These methods are known in the art. For example, the synthesis of these compounds can be guided by U.S. Pat. No. 5,248,770 or by Jacobson et al., Journal of Medicinal Chemistry, 28, 1341-1346 (1985).

[11] = tested on: brain ischemia; assay: Comparison of effective neuroprotective concentrations with other A1 agonists; assay type: in vivo, gerbil; details: vs other A1 adenosine receptor agonists examined thus far
[12] = 0.1 mg/kg ADAC 15 min post ischemia
[13] = 0.1 mg/kg ADAC 30 min post ischemia
[14] = 0.1 mg/kg ADAC 2 hour post ischemia
[15] = 0.1 mg/kg ADAC 3 hour post ischemia
[16] = 0.1 mg/kg ADAC 6 hour post ischemia
[17] = 0.1 mg/kg ADAC 12 hour post ischemia

NCCNC(=O)Cc1ccc(NC(=O)Cc2ccc(Nc3ncnc4c3ncn4[C@@H]3O[C@H](CO)[C@@H](O)[C@H]3O)cc2)cc1 [ADAC]
behavioral changes by open field locomotor activity testing [1]: does not induce behavioral changes; also recorded: did not induce any behavioral changes | death rate [2]: 20% | open field activity (horizontal displacement) [3]: 135±6 cm | hippocampal CA1 neurons surviving ([4]; control 23%): 81% | neuronal loss in cortex and striatum ([4]; control 83% (cortex) and 25% (striatum) surviving): complete elimination of neuronal loss | CA1 neuronal preservation ([5]; ADAC at 0.5, 2 or 3 hours postischemia): ~ 75% | CA1 neurons surviving ([5]; ADAC at 15 minutes, 6 or 12 hours postischemia): approximately 60% | CA1 neurons still intact ([5]; ADAC at 1 hour postischemia): 88±4% | loss of MAP-2 density in CA1 ([6]; 2 days after ischemia, control 50% loss): no loss | decrease of MAP-2 density in CA1 ([6]; 7 days after occlusion): approximately 15% | Survival Rate 24 h postischemia [7, 12]: 100% | Survival Rate 14 days postischemia [7, 12]: 70% | Survival Rate 24 h postischemia [7, 13]: 100% | Survival Rate 14 days postischemia [7, 13]: 90% | Survival Rate 24 h postischemia ([7]; 0.1 mg/kg ADAC 1 hour post ischemia): 80% | Survival Rate 24 h postischemia [7, 14]: 80% | Survival Rate 14 days postischemia [7, 14]: 80% | Survival Rate 24 h postischemia [7, 15]: 60% | Survival Rate 14 days postischemia [7, 15]: 50% | Survival Rate 24 h postischemia [7, 16]: 50% | Survival Rate 14 days postischemia [7, 16]: 50% | Survival Rate 24 h postischemia [7, 17]: 60% | Survival Rate 14 days postischemia [7, 17]: 50% | survival rate ([8]; 0.025 mg/kg): 30% | survival rate ([8]; 0.050 mg/kg): 60% | survival rate (plateau) ([8]; 75, 100, or 200 mg/kg (so in the source)): 80% | survival rate after chronic treatment followed by ischemia ([9]; FIG. 7A): attenuated the effects of brain ischemia | neuronal loss after chronic treatment followed by ischemia ([9]; FIG. 7B): attenuated the effects of brain ischemia | Ki [10]: 210 nM | level of efficacy versus other A1 adenosine receptor agonists [11]: about an order of magnitude better
